The target of assay [1] is over expressed HSD17β9 in HEK293S cells (Homo sapiens (Human), UniProt Q92781). As to the kind of experiment: In Vitro 17bHSD9 Cell Assay. It is filed as cell-based. The following applies: HEK293S cells over expressing HSD17β9; retinol to retinal conversion, 18 h, LC-MS/MS; read-out: 17bHSD9 Cell assay IC50. In outline:
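HEK293S cells overexpressing HSD17β9 were plated at 10K cells/well in DMEM + 10% FBS and cultured 18 h. Retinol-to-retinal conversion in media was quantified by LC-MS/MS (MRM) as retinal/(retinal + retinol). IC50 was fitted after normalisation to DMSO and full inhibition by a reference inhibitor.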

Assay [2] concerns the target over expressed HSD17β13 in HEK293S cells (Homo sapiens (Human), UniProt Q7Z5P4). As to the kind of experiment: In Vitro 17bHSD13 Cell Assay. The following applies: HEK293S cells over expressing HSD17β13; estradiol to estrone conversion, 18 h, LC-MS/MS; read-out: 17bHSD1713 Cell assay IC50. The class given is cell-based. Summed up:
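HEK293S cells overexpressing HSD17β13 convert estradiol to estrone; product read by LC-MS/MS (APCI, positive MRM) as AUC ratio estrone/(estrone+estradiol). Effect normalised between DMSO and maximal inhibition by a known inhibitor control; IC50 from curve fit.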

In the next assay the target is CYP2C9 (Homo sapiens (Human), UniProt P11712). The experiment in a line: Assay B: Cytochrome P450 Inhibition 2C9.
Chain of CYP2C9 (P11712 whole entry): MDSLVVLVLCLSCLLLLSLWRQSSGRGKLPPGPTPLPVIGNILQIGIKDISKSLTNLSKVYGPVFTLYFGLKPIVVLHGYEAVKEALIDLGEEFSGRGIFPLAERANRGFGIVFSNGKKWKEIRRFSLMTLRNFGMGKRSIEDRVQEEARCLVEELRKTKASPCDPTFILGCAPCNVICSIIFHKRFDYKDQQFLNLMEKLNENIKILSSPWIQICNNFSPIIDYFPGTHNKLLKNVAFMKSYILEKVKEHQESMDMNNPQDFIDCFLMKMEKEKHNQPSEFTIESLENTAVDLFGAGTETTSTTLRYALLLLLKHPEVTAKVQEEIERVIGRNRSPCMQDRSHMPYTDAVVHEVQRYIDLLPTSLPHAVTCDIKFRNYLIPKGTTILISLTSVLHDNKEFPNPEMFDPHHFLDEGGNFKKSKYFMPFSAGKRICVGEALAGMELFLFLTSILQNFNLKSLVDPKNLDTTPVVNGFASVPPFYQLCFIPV

Chain of over expressed HSD17β13 in HEK293S cells (Q7Z5P4 20-300): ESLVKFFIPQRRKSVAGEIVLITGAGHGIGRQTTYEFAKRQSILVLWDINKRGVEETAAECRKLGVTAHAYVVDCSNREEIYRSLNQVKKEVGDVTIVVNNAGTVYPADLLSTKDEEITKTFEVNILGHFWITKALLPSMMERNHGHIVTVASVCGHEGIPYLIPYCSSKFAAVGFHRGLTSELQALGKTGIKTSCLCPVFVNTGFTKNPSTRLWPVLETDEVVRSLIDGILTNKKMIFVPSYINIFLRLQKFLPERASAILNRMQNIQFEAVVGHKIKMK
Chain of over expressed HSD17β9 in HEK293S cells (Q92781 whole entry): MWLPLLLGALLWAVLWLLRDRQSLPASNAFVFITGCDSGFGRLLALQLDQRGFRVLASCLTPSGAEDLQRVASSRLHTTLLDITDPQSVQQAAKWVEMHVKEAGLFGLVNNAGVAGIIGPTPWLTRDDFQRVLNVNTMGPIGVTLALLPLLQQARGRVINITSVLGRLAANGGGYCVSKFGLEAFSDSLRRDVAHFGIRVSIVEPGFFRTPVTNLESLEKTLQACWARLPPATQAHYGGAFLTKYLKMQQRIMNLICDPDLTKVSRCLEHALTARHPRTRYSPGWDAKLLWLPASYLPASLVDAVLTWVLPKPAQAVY

In the case of `O=C(c1noc(-c2cc(F)c(F)c(O)c2F)n1)N1CC2CCC(C1)C2(F)F` [Example 43, (8,8-difluoro-3-azabicyclo[3.2.1]octan-3-yl)(5-(2,4,5-trifluoro-3-hydroxyphenyl)-1,2,4-oxadiazol-3-yl)methanone], the IC50 in assay [1] is 18.4 µM; in assay [2] it was 0.24 µM; at CYP2C9 it was 13.9 µM.
The matching figures for `C[C@@H]1CN(C(=O)c2noc(-c3c(F)c(O)c(F)c(F)c3I)n2)C[C@H](C)O1` [Example 108, ((2S,6R)-2,6-Dimethylmorpholino)(5-(2,4,5-trifluoro-3-hydroxy-6-iodophenyl)-1,2,4-oxadiazol-3-yl)methanone]: over 50 µM, 0.49 µM and 7 µM.
On the same counts, the results for `C[C@@H]1CN(C(=O)c2noc(-c3cc(F)c(F)c(O)c3F)n2)C[C@H](C)N1` [Example 119, ((3R,5S)-3,5-Dimethylpiperazin-1-yl)(5-(2,4,5-trifluoro-3-hydroxyphenyl)-1,2,4-oxadiazol-3-yl)methanone] are over 50 µM, 2.75 µM and 12.3 µM.
As for `O=C(Nc1ccnn1C1CCCCC1)c1cc(-c2ccc(F)c(O)c2)on1` [Example 99, N-(1-Cyclohexyl-1H-pyrazol-5-yl)-5-(4-fluoro-3-hydroxyphenyl)isoxazole-3-carboxamide], the IC50 is 38.9 µM in assay [1], 15.8 µM in assay [2] and over 30 µM at CYP2C9.
The matching figures for `N#Cc1cccc2c1CCN(C(=O)c1noc(-c3c(F)c(O)c(F)c(F)c3I)n1)C2` [Example 109, 2-(5-(2,4,5-Trifluoro-3-hydroxy-6-iodophenyl)-1,2,4-oxadiazole-3-carbonyl)-1,2,3,4-tetrahydroisoquinoline-5-carbonitrile]: over 50 µM, 1.7 µM and 14.8 µM.
On the same counts, the results for `O=C(c1noc(-c2cc(F)c(F)c(O)c2F)n1)N1CC[C@H](c2ccc(Cl)cc2)C1` [Example 95, (R)-(3-(4-Chlorophenyl)pyrrolidin-1-yl)(5-(2,4,5-trifluoro-3-hydroxyphenyl)-1,2,4-oxadiazol-3-yl)methanone] are 17 µM, 0.21 µM and 1.1 µM.
On the same counts, the results for `O=C(c1noc(-c2cc(F)c(F)c(O)c2F)n1)N1CCOC2CCCC21` (stereo not drawn) [Example 41, (Hexahydrocyclopenta[b][1,4]oxazin-4(4aH)-yl)(5-(2,4,5-trifluoro-3-hydroxyphenyl)-1,2,4-oxadiazol-3-yl)methanone] are 49.6 µM, 0.09 µM and 15.4 µM.
With `O=C(c1noc(-c2cc(F)c(F)c(O)c2F)n1)N1CC[C@@H](Oc2ccccc2)C1` [Example 98, (R)-(3-Phenoxypyrrolidin-1-yl)(5-(2,4,5-trifluoro-3-hydroxyphenyl)-1,2,4-oxadiazol-3-yl)methanone], the IC50 in assay [1] came to 40.2 µM; in assay [2], 0.52 µM; against CYP2C9 it was 0.8 µM.
As for `O=C(c1noc(-c2cc(F)c(F)c(O)c2F)n1)N1CCOC2(CC2)C1` [Example 118, (4-Oxa-7-azaspiro[2.5]octan-7-yl)(5-(2,4,5-trifluoro-3-hydroxyphenyl)-1,2,4-oxadiazol-3-yl)methanone], the IC50 in assay [1] is over 50 µM; in assay [2] it was 0.22 µM; against CYP2C9, 7.8 µM.
On the same counts, the results for `Cn1nnc(-c2cnc(N3CCN(C(=O)c4noc(-c5cc(F)c(F)c(O)c5F)n4)CC3)c(Cl)c2)n1` [Example 67, (4-(3-Chloro-5-(2-methyl-2H-tetrazol-5-yl)pyridin-2-yl)piperazin-1-yl)(5-(2,4,5-trifluoro-3-hydroxyphenyl)-1,2,4-oxadiazol-3-yl)methanone] are over 50 µM, 0.53 µM and 3 µM.
On to `N#Cc1cccc2c1CCN(C(=O)c1noc(-c3c(F)c(O)c(F)c(F)c3Br)n1)C2` [Example 30, 2-(5-(2-Bromo-3,4,6-trifluoro-5-hydroxyphenyl)-1,2,4-oxadiazole-3-carbonyl)-1,2,3,4-tetrahydroisoquinoline-5-carbonitrile], for which the IC50 in assay [1] amounted to 15.8 µM; in assay [2], 2.52 µM; at CYP2C9 it was 3.9 µM.
As to `O=C(c1noc(-c2cc(F)c(F)c(O)c2F)n1)N1CCN(CCOc2ccc(Br)cn2)CC1` [Example 69, (4-(2-((5-Bromopyridin-2-yl)oxy)ethyl)piperazin-1-yl)(5-(2,4,5-trifluoro-3-hydroxyphenyl)-1,2,4-oxadiazol-3-yl)methanone], the values for the IC50 (in assay [1]; in assay [2]; against CYP2C9) were 21.9 µM, 0.11 µM and 2.4 µM, respectively.
The matching figures for `N#Cc1ccc2c(c1)CCN(C(=O)c1noc(-c3cc(F)c(F)c(O)c3F)n1)C2` [Example 31, 2-(5-(2,4,5-Trifluoro-3-hydroxyphenyl)-1,2,4-oxadiazole-3-carbonyl)-1,2,3,4-tetrahydroisoquinoline-6-carbonitrile]: 30 µM, 1.06 µM and 5 µM.
On the same counts, the results for `N#Cc1c(C(=O)N2CCN(CCCOc3ccc(F)cc3)CC2)noc1-c1cc(F)c(F)c(O)c1F` [Example 14, 3-(4-(3-(4-Fluorophenoxy)propyl)piperazine-1-carbonyl)-5-(2,4,5-trifluoro-3-hydroxyphenyl)isoxazole-4-carbonitrile] are over 50 µM, 0.26 µM and 1.1 µM.
On the same counts, the results for `COc1cccc(N2CCN(C(=O)c3noc(-c4cc(F)c(F)c(O)c4F)c3C#N)CC2)c1` [Example 16, 3-(4-(3-Methoxyphenyl)piperazine-1-carbonyl)-5-(2,4,5-trifluoro-3-hydroxyphenyl)isoxazole-4-carbonitrile] are over 50 µM, 4.56 µM and 0.8 µM.
Take `C[C@@H]1CN(C(=O)c2noc(-c3cc(F)c(F)c(O)c3F)n2)C[C@@H](C)O1` [Example 88, ((2R,6R)-2,6-Dimethylmorpholino)(5-(2,4,5-trifluoro-3-hydroxyphenyl)-1,2,4-oxadiazol-3-yl)methanone]: the figures for the IC50 (in assay [1]; in assay [2]; on CYP2C9) were 41.7 µM, 0.19 µM and 16.8 µM, respectively.
Regarding `CC1(C)CN(C(=O)c2noc(-c3cc(F)c(F)c(O)c3F)n2)CC(C)(C)O1` [Example 32, (2,2,6,6-Tetramethylmorpholino)(5-(2,4,5-trifluoro-3-hydroxyphenyl)-1,2,4-oxadiazol-3-yl)methanone], the IC50 was 15.8 µM in assay [1], 0.3 µM in assay [2] and 8.3 µM on CYP2C9.
The matching figures for `N#Cc1c(C(=O)N2Cc3ccc(F)cc3C2)noc1-c1cc(F)c(F)c(O)c1F` [Example 18, 3-(5-Fluoroisoindoline-2-carbonyl)-5-(2,4,5-trifluoro-3-hydroxyphenyl)isoxazole-4-carbonitrile]: 6.2 µM, 0.79 µM and 0.4 µM.
The matching figures for `N#Cc1ccc2c(c1)CN(C(=O)c1noc(-c3cc(F)c(F)c(O)c3F)c1C#N)CC2` [Example 29, 3-(7-Cyano-1,2,3,4-tetrahydroisoquinoline-2-carbonyl)-5-(2,4,5-trifluoro-3-hydroxyphenyl)isoxazole-4-carbonitrile]: 16.3 µM, 0.44 µM and 0.2 µM.
The matching figures for `CC(C)CC1CN(C(=O)c2noc(-c3cc(F)c(F)c(O)c3F)n2)CCO1` (stereo not drawn) [Example 47, (2-Isobutylmorpholino)(5-(2,4,5-trifluoro-3-hydroxyphenyl)-1,2,4-oxadiazol-3-yl)methanone]: 2.1 µM, 0.23 µM and 1 µM.
For the compound `O=C(c1noc(-c2cc(F)c(F)c(O)c2F)n1)N1CCO[C@H]2CCC[C@H]21` [Example 112, ((4aR,7aS)-Hexahydrocyclopenta[b][1,4]oxazin-4(4aH)-yl)(5-(2,4,5-trifluoro-3-hydroxyphenyl)-1,2,4-oxadiazol-3-yl)methanone], the IC50 in assay [1] amounted to 32.4 µM; in assay [2] it was 0.39 µM; on CYP2C9 it was 5.4 µM.
On the same counts, the results for `C[C@@H]1CN(C(=O)c2noc(-c3cc(F)c(F)c(O)c3F)n2)[C@H](C)CO1` [Example 50, ((2R,5R)-2,5-Dimethylmorpholino)(5-(2,4,5-trifluoro-3-hydroxyphenyl)-1,2,4-oxadiazol-3-yl)methanone] are 39.5 µM, 0.22 µM and 17.2 µM.
`O=C(c1noc(-c2cc(F)c(F)c(O)c2F)n1)N1CC[C@H](Oc2ccccc2)C1` [Example 93, (S)-(3-Phenoxypyrrolidin-1-yl)(5-(2,4,5-trifluoro-3-hydroxyphenyl)-1,2,4-oxadiazol-3-yl)methanone]: the IC50 in assay [1] worked out at 40.3 µM; in assay [2] it was 0.7 µM; on CYP2C9, 1.3 µM.
Consider `C[C@@H]1CN(C(=O)c2noc(-c3cc(F)c(F)c(O)c3F)c2C#N)C[C@H](C)O1` [Example 22, 3-((2R,6S)-2,6-Dimethylmorpholine-4-carbonyl)-5-(2,4,5-trifluoro-3-hydroxyphenyl)isoxazole-4-carbonitrile], for which the IC50 was over 50 µM in assay [1], 1.12 µM in assay [2] and 1.2 µM on CYP2C9.

The record behind these values is patent publication US20250011311A1, “AMIDO HETEROAROMATIC COMPOUNDS” (AstraZeneca AB, priority 2022, published 2025).
